Measured values as given in article PMC8103899, “Allyl Isothiocyanate: A TAS2R38 Receptor-Dependent Immune Modulator at the Interface Between Personalized Medicine and Nutrition” (Frontiers in Immunology, 2021).

How the values were obtained:
[1] = Human food intervention: AITC metabolite plasma levels after mustard intake (LC-ESI-MS/MS); format: in vivo; conditions: single intake of an AITC containing food product
Description: AITC metabolite quantification was carried out in blood plasma samples derived from an intervention study at the University Medical Center in Freiburg, Germany. Samples were from 4 healthy young adults (3 females, 1 male, aged between 30-40 years) having a normal BMI, and were non-smokers. Each subject consumed one time 10 g of a commercially available mustard preparation ([…] Munich, Germany) containing 24.74 ± 1.76 μmol/g fresh weight preformed AITC on an empty stomach with optional consumption of white bread. The intervention was preceded by a 48 h wash-out phase consisting of a glucosinolate/ITC-free diet. After 30 min and optionally 60 min, blood was collected by venipuncture in serum tubes and centrifuged at 2000g for 10 min, 4°C to obtain serum. Subsequently, TFA was added and the samples frozen at -80°C. The preparation of serum samples (300 μL serum and 100 μL TFA) was conducted as described by Kühn et al. ([37]). The frozen samples were thawed, vortexed (1 min) and centrifuged (4 °C, 10 min, 20.854 x g). The supernatant was transferred to SPE cartridges. Prior to transferring, SPE cartridges were conditioned with acetonitrile (ACN, 3 mL) and equilibrated with water (3 mL). After sample application, the cartridges were washed with formic acid (FA, 3 mL, 0.1% in water) and the metabolites were eluted with FA (3 mL, 0.1% in ACN:water, 90:10, v/v). […] The samples were re-dissolved in 100 μL FA (0.1% in ACN:water, 90:10, v/v). Sample aliquots of 5 μL were injected into the LC-ESI-MS/MS system. LC-ESI-MS/MS analysis was performed on an API4000 triple quadrupole mass spectrometer (AB Sciex Germany GmbH, Darmstadt, Germany) equipped with an Agilent 1200 LC system (Agilent Technologies Deutschland GmbH & Co. KG, Waldbronn, Germany). For data acquisition and processing the software Analyst 1.6.1 (AB Sciex Germany GmbH, Darmstadt, Germany) was used. […] AITC-CysGly; AITC-Cys; AITC-NAC) was conducted according to Platz et al. ([38]) with minor modifications. The separation was performed on a Kinetex C18 column (Phenomenex, 5 μm, 100 Å, 150 x 2.1 mm). The autosampler operated at 4°C and the set temperature for the oven was 20°C. A constant flow of 300 μL/min was used for the mobile phase which consisted of 0.1% FA in water (A) and 0.1% FA in ACN (B). […] In order to equilibrate the column, A was increased to 90% and held for 5 min. The relevant MS parameters include an entrance potential of -10 V, a desolvation gas temperature of 450°C, ion spray potential of -4.5 kV, gas 1 and gas 2 at 46 psi and a curtain gas pressure at 10 psi.

TAS2R38 receptor [2] = biological target: TAS2R38 receptor (Homo sapiens, UniProt P59533, A262V); assay: Calcium flux assay in human PBMC (flow cytometry, Fluo-4 AM); conditions: AVI/AVI, 100 µM AITC
TAS2R38 receptor [3] = biological target: T1, TAS2R38 receptor (Homo sapiens, UniProt P59533, A49P/I296V); assay: as above
T1 sequence (P59533 1-333 A49P/I296V): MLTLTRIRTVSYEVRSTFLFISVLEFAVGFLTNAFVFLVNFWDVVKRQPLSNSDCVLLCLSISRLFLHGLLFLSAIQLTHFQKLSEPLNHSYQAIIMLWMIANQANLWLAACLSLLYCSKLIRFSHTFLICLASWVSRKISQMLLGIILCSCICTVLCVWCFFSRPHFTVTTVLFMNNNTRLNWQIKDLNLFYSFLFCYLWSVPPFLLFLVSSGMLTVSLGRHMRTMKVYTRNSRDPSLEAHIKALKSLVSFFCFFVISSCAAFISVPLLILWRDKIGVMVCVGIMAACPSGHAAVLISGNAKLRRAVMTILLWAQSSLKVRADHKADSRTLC

Chain of TAS2R38 receptor (Homo sapiens, UniProt P59533, A262V) (P59533 whole entry A262V): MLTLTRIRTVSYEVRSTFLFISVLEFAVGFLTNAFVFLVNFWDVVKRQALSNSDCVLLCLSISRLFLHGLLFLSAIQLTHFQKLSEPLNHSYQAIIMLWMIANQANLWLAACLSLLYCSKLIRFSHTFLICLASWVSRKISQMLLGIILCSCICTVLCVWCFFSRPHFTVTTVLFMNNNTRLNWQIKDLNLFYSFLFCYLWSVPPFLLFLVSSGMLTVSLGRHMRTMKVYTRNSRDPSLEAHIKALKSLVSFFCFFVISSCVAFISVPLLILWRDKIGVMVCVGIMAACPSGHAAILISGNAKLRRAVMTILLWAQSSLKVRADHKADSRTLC

## C=CCN=C=S [AITC, allyl isothiocyanate]
[1]
  AITC plasma levels: around one
TAS2R38 receptor [2]; lymphocytes
  calcium influx: 24%
TAS2R38 receptor [2]; monocytes
  calcium flux (statistically significant): 20%
TAS2R38 receptor [3]; PAV/PAV cells, 0.01 µM AITC (increase between 0.01 to 1 µM)
  calcium influx: 28%
TAS2R38 receptor [3]; PAV/PAV cells, 1 µM AITC (increase between 0.01 to 1 µM)
  calcium influx: 35%
TAS2R38 receptor [3]; PAV/PAV cells, 10 µM AITC (increase between 10-100 µM)
  calcium influx: 45%
TAS2R38 receptor [3]; PAV/PAV cells, 100 µM AITC (increase between 10-100 µM)
  calcium influx: 72%
TAS2R38 receptor [3]; lymphocytes, PAV/PAV, 1 µM AITC
  calcium influx: 25%
TAS2R38 receptor [3]; monocytes, PAV/PAV, 0.01 µM AITC
  calcium flux (statistically significant): 22%
TAS2R38 receptor [3]; monocytes, calcium flux
  threshold concentration: 10 nM
